Peptide text beside a SMILES is read from it.
Tests used:
[1] = tested on: IFNγ/LPS stimulated human macrophages; assay: Cytokine secretion by IFNγ/LPS stimulated human macrophages (Luminex); assay type: cell-based
Source text: In this example, the ability of human chemerin C15 to inhibit secretion of cytokines from activated human macrophages was examined. For this experiment, the activity of the human chemerin C15 peptide […] (SEQ ID NO: 1) was compared to that of the human chemerin C17 peptide […] (SEQ ID NO: 25). The C15 and C17 peptides were synthesized by solid phase synthesis using BOP coupling of FMOC protected amino acids with final cleavage from the resin with TFA. Peptides were purified by reverse phase C18 chromatography using a water/acetonitrile gradient.
Human macrophages were derived from human CD14+ monocytes obtained from 3 donors. On Day 1, the isolated monocytes were thawed and seeded in triplicate for each group in 1 ml RPMI 1640 GlutaMAX™ media (supplemented with 10% FBS, 100 U/ml penicillin, 100 μg/ml streptomycin, 0.05 μM mercaptoethanol, 1% NEAA and 1% sodium pyruvate) per well of a 24 well cell culture dish at a cell concentration of 5×10^5 cells/ml. M-CSF was added to each well to give a final concentration of 25 ng/ml. Cells were grown for 7 days at 37° C. with 5% CO2 to differentiate the cells into macrophages. Media and M-CSF were replaced after 4 days.
Following differentiation, the media containing M-CSF was removed. The cells were washed and vehicle control, dexamethasone, C15 or C17 were added to the appropriate wells. The test peptides were dissolved in 50% DMSO/water prior to addition. C-15 (MW 1669; 16.7 mg/ml) was added to a final concentration of […] and C17 (MW 1904; 19.0 mg/ml) was added to a final concentration of 1 μM. Dexamethasone was added to a final concentration of 1 μM. Following addition to the wells, the plates were incubated at 37° C. with 5% CO2 for 1 hour. An equal volume of complete media was added to the non-treated wells. Control or test treatments were maintained at the correct concentration throughout the assay.
IFNγ (final concentration 20 ng/ml) was then added to the appropriate wells. Following IFNγ addition, the plates were incubated at 37° C. with 5% CO2 for 4 hours. The concentration of vehicle control, test treatments or dexamethasone was maintained during IFNγ stimulation. LPS (final concentration 10 ng/ml) was then added to the appropriate wells. Following LPS addition, the plates were incubated at 37° C. with 5% CO2 for 15 hours. After 6 hours, ˜60 μl of culture supernatant was removed from all wells and stored at −80° C. for analysis. The concentration of vehicle control, test treatments or dexamethasone was maintained during LPS stimulation.
At 15 hours post LPS stimulation, the remaining cell culture supernatant was harvested and stored at −80° C. until assayed. The concentration of vehicle control, test treatments or dexamethasone was maintained until culture termination.
Cell culture supernatants taken at 6 hours and 15 hours post LPS addition were assayed for the production of RANTES, TNFα, IL-1β, IL-6, IL-10, IL-12p40 (subunit common to IL-12 and IL-23) and IL-15 (negative control) using Luminex® technology (Procarta human cytokine kit; Panomics) following the manufacturer's instructions.
In this experiment, the importance of the FYFP motif (SEQ ID NO: 2) in the human chemerin C15 peptide on anti-inflammatory activity was examined. The ability of the human chemerin C15 peptide […] (SEQ ID NO: 1) was compared to that of a substituted chemerin C15 peptide having the amino acid sequence […] (SEQ ID NO: 27), where the second phenylalanine in the peptide is modified to alanine. The experiment was performed as described in Example 1. 0.1 pM 0.5 pM and 1 pM concentrations of the C15 and C15 mutant peptides were tested. Cytokine expression was determined as described in Example 1.

ChemR23 = target: T1, ChemR23 (Homo sapiens, UniProt Q99788); assay: Hit Hunter cAMP Hunter assay, human ChemR23; assay type: cell-based
T1 sequence (Q99788 1-373): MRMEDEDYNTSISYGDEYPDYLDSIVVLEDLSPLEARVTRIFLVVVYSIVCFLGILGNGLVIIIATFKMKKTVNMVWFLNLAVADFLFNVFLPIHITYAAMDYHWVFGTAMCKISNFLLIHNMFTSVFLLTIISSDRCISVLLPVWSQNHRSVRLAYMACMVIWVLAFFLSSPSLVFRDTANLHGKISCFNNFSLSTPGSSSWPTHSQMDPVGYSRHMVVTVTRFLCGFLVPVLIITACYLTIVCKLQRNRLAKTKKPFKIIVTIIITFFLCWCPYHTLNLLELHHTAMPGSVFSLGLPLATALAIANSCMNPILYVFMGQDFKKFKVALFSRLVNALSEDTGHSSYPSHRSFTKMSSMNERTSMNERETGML
Method: The DiscoveRx PathHunter™ eXpress GPCR activity assay was employed to test agonist and antagonist activities of the chemerin peptides against the GPCRs ChemR23 and GPR1. Two assay formats were tested, the PathHunter β-Arrestin assay and the Hit Hunter cAMP Hunter assay.
The protocol used was a standard protocol employed by DiscoveRx PathHunter™ profiling service. […] Once it was established that the cells were healthy and growing normally, cells were passaged from flasks using cell dissociation reagent buffer and seeded into white walled clear bottom 384-well microplates for compound profiling. For profiling, cells were seeded at a density of 10000 cells per well in a total volume of 20 μL and were allowed to adhere and recover overnight prior to compound addition. Cells were treated the following day using the protocols shown below. cAMP modulation was determined using the DiscoveRx HitHunter cAMP XS+ assay.
For profiling compound in agonist mode, the cells were incubated in the presence of compound at 37° C. for 30 minutes.
EC80 agonist concentration was determined directly from agonist dose curve.
Microplates were read following signal generation with a PerkinElmer Envision™ instrument for chemiluminescent signal detection.
Dose curves in the presence and absence of compound were plotted using GraphPad Prism or Activity Base.

[2] = Example 3, 0.1 pM 0.5 pM and 1 pM tested, FIG. 3

SMILES	inhibition of newly synthesized RANTES (difference between the 6 and 15 hour time points) ([1]; 1 pM)	decrease in IL-10 ([1]; C15 peptide treatment) [%]	percent inhibition of RANTES expression [1, 2] [%]	percent inhibition of TNFα expression [1, 2] [%]	inhibition of cytokine production/secretion in vitro ([1]; within 15 hours)	IC50 (ChemR23) [µM]	inhibition of cytokine production ([1]; 1 μM)
C[C@H](N)C(=O)NCC(=O)N[C@@H](CCC(=O)O)C(=O)N[C@@H](CC(=O)O)C(=O)N1CCC[C@H]1C(=O)N[C@@H](Cc1c[nH]cn1)C(=O)N[C@@H](CO)C(=O)N[C@@H](Cc1ccccc1)C(=O)N[C@@H](Cc1ccc(O)cc1)C(=O)N[C@@H](Cc1ccccc1)C(=O)N1CCC[C@H]1C(=O)NCC(=O)N[C@@H](CCC(N)=O)C(=O)N[C@@H](Cc1ccccc1)C(=O)N[C@@H](C)C(=O)O [C15 (human)] (H-AGEDPHSFYFPGQFA-OH; N-terminus and C-terminus assumed)	approximately 90%	~25	47	61	40-60%	> 10	
C[C@H](N)C(=O)NCC(=O)N[C@@H](CCC(=O)O)C(=O)N[C@@H](CC(=O)O)C(=O)N1CCC[C@H]1C(=O)N[C@@H](Cc1c[nH]cn1)C(=O)N[C@@H](CO)C(=O)N[C@@H](Cc1ccccc1)C(=O)N[C@@H](Cc1ccc(O)cc1)C(=O)N[C@@H](Cc1ccccc1)C(=O)N1CCC[C@H]1C(=O)NCC(=O)N[C@@H](CCC(N)=O)C(=O)N[C@@H](Cc1ccccc1)C(=O)N[C@@H](C)C(=O)N[C@@H](Cc1ccccc1)C(=O)N[C@@H](CO)C(=O)O [C17 (human)] (H-AGEDPHSFYFPGQFAFS-OH; N-terminus and C-terminus assumed)						> 10	did not exhibit any significant inhibition
CC(C)C[C@H](NC(=O)[C@H](Cc1ccccc1)NC(=O)[C@H](Cc1ccc(O)cc1)NC(=O)CNC(=O)[C@H](Cc1c[nH]cn1)NC(=O)[C@@H]1CCCN1C(=O)[C@H](CC(=O)O)NC(=O)[C@H](CCC(=O)O)NC(=O)CNC(=O)[C@H](C)N)C(=O)N1CCC[C@H]1C(=O)NCC(=O)N[C@@H](CCC(N)=O)C(=O)N[C@@H](Cc1ccccc1)C(=O)N[C@@H](C)C(=O)O [mC15] (H-AGEDPHGYFLPGQFA-OH; N-terminus and C-terminus assumed)						> 10	
